Test results: patent US9180115B2, “Cyclohexylamines” (Asana Biosciences, LLC, priority 2011, dated 2015)

Columns and labels:
[1] = tested on: sodium current in DRG neurons; details: co-applied with 1 μM capsaicin, whole-cell voltage clamp; read-out: in vitro apparent affinity (IC50) for blocking sodium current in DRG neurons; cited from earlier work
[2] = tested on: isolated detrusor muscle; assay: In vitro assay for effect of compounds on bladder detrusor muscle (EFS-induced contractions); design: species or system guinea-pigs; details: cumulative concentration-response

Compound | IC50 [1] [µM] | EFS-induced detrusor contractions [2]
CC[N+](CC)(CC)CC(=O)Nc1c(C)cccc1C [QX-314] | 30 | 
CCN(CC)CC(=O)Nc1c(C)cccc1C [lidocaine] |  | concentration-dependent inhibitions of EFS-induced detrusor contractions
